Among the data in patent US20100311714A1, “1H-IMIDAZO[4,5-c]QUINOLINONE COMPOUNDS” (priority 2009, published 2010) are IC50 values, retold here.

Each structure is given as a SMILES string.

The test system of this test is PKB Ser473 phosphorylation in Rat1-myr-HA-p110 alpha cells. Briefly: Reverse protein array, PKB Ser473 phosphorylation in Rat1-myr-HA-p110 alpha cells. Particulars: Rattus norvegicus, 0.5 h, 30 minutes compound incubation, read-out: p-PKB/IC50_alpha. Format: cell-based.
`CN(C)c1ccc(-c2ccc3ncc4c(c3c2)n(-c2cccnc2)c(=O)n4C)cn1` [Example 5.3, 8-(6-Dimethylamino-pyridin-3-yl)-3-methyl-1-pyridin-3-yl-1,3-dihydro-imidazo[4,5-c]quinolin-2-one]: the IC50 amounted to 92.2 nM.

Take `CCOc1ccc(-c2ccc3ncc4c(c3c2)n(-c2cccnc2F)c(=O)n4C)cn1` [Example 6.1, 8-(6-Ethoxy-pyridin-3-yl)-1-(2-fluoro-pyridin-3-yl)-3-methyl-1,3-dihydro-imidazo[4,5-c]quinolin-2-one]: the IC50 was 31.5 nM.

For the compound `Cn1c(=O)n(-c2cccnc2F)c2c3cc(-c4cnc(N)c(C(F)(F)F)c4)ccc3ncc21` [Example 6.2, 8-(6-Amino-5-trifluoromethyl-pyridin-3-yl)-1-(2-fluoro-pyridin-3-yl)-3-methyl-1,3-dihydro-imidazo[4,5-c]quinolin-2-one], the IC50 stood at 4.57 nM.

As to `Cc1nc(F)ccc1-n1c(=O)n(C)c2cnc3ccc(-c4cnc(N)c(C(F)(F)F)c4)cc3c21` [Example 7.1, 8-(6-Amino-5-trifluoromethyl-pyridin-3-yl)-1-(6-fluoro-2-methyl-pyridin-3-yl)-3-methyl-1,3-dihydro-imidazo[4,5-c]quinolin-2-one], the IC50 was determined as 11.8 nM.

Turning to `Cc1nc(F)ccc1-n1c(=O)n(C)c2cnc3ccc(-c4cnc5c(ccn5C)c4)cc3c21` [Example 7.2, 1-(6-Fluoro-2-methyl-pyridin-3-yl)-3-methyl-8-(1-methyl-1H-pyrrolo[2,3-b]pyridin-5-yl)-1,3-dihydro-imidazo[4,5-c]quinolin-2-one], the IC50 was determined as 12.1 nM.

`CCOc1ccc(-c2ccc3ncc4c(c3c2)n(-c2ccc(F)nc2C)c(=O)n4C)cn1` [Example 7.3, 8-(6-Ethoxy-pyridin-3-yl)-1-(6-fluoro-2-methyl-pyridin-3-yl)-3-methyl-1,3-dihydro-imidazo[4,5-c]quinolin-2-one]: the IC50 came out at 42.2 nM.

Consider `CNc1ccc(-c2ccc3ncc4c(c3c2)n(-c2ccc(F)nc2C)c(=O)n4C)cn1` [Example 7.4, 1-(6-Fluoro-2-methyl-pyridin-3-yl)-3-methyl-8-(6-methylamino-pyridin-3-yl)-1,3-dihydro-imidazo[4,5-c]quinolin-2-one], for which the IC50 amounted to 7.18 nM.

Consider `CCOc1cc(-c2ccc3ncc4c(c3c2)n(-c2ccc(F)nc2C)c(=O)n4C)cnc1COC` [Example 7.5, 8-(5-Ethoxy-6-methoxymethyl-pyridin-3-yl)-1-(6-fluoro-2-methyl-pyridin-3-yl)-3-methyl-1,3-dihydro-imidazo[4,5-c]quinolin-2-one], for which the IC50 was 31.5 nM.

Consider `Cc1nc(F)ccc1-n1c(=O)n(C)c2cnc3ccc(-c4cncc(C(C)(C)O)c4)cc3c21` [Example 7.8, 1-(6-Fluoro-2-methyl-pyridin-3-yl)-8-[5-(1-hydroxy-1-methyl-ethyl)-pyridin-3-yl]-3-methyl-1,3-dihydro-imidazo[4,5-c]quinolin-2-one], for which the IC50 was 14.5 nM.

For `CCOc1ccc(-c2ccc3ncc4c(c3c2)n(-c2ccc(N3CCNCC3)nc2OC)c(=O)n4C)cn1` [Example 9.1, 8-(6-Ethoxy-pyridin-3-yl)-1-(2-methoxy-6-piperazin-1-yl-pyridin-3-yl)-3-methyl-1,3-dihydro-imidazo[4,5-c]quinolin-2-one], the IC50 turned out to be 18.4 nM.

Regarding `COc1nc(N2CCNCC2)ccc1-n1c(=O)n(C)c2cnc3ccc(-c4cnc(N)c(C(F)(F)F)c4)cc3c21` [Example 9.2, 8-(6-Amino-5-trifluoromethyl-pyridin-3-yl)-1-(2-methoxy-6-piperazin-1-yl-pyridin-3-yl)-3-methyl-1,3-dihydro-imidazo[4,5-c]quinolin-2-one], the IC50 came out at 33.9 nM.

Regarding `Cc1nc(N2CCN(C)C(=O)C2)ccc1-n1c(=O)n(C)c2cnc3ccc(-c4cnc(N)c(C(F)(F)F)c4)cc3c21` [Example 21.1, 8-(6-Amino-5-trifluoromethyl-pyridin-3-yl)-3-methyl-1-[2-methyl-6-(4-methyl-3-oxo-piperazin-1-yl)-pyridin-3-yl]-1,3-dihydro-imidazo[4,5-c]quinolin-2-one], the IC50 is below 4.57 nM.

On to `CCOc1cc(-c2ccc3ncc4c(c3c2)n(-c2ccc(OCCOC)nc2C)c(=O)n4C)cnc1COC` [Example 22.1, 8-(5-Ethoxy-6-methoxymethyl-pyridin-3-yl)-1-[6-(2-methoxy-ethoxy)-2-methyl-pyridin-3-yl]-3-methyl-1,3-dihydro-imidazo[4,5-c]quinolin-2-one], for which the IC50 came to 17.7 nM.

For the compound `Cc1nc(N2CCC2)ccc1-n1c(=O)n(C)c2cnc3ccc(-c4cncc(N5CCC5)c4)cc3c21` [Example 23.1, 1-(6-Azetidin-1-yl-2-methyl-pyridin-3-yl)-8-(5-azetidin-1-yl-pyridin-3-yl)-3-methyl-1,3-dihydro-imidazo[4,5-c]quinolin-2-one], the IC50 turned out to be 21.1 nM.

Regarding `COCc1ncc(-c2ccc3ncc4c(c3c2)n(-c2ccc(N3CCC3)nc2C)c(=O)n4C)cc1OC(C)C` [Example 23.2, 1-(6-Azetidin-1-yl-2-methyl-pyridin-3-yl)-8-(5-isopropoxy-6-methoxymethyl-pyridin-3-yl)-3-methyl-1,3-dihydro-imidazo[4,5-c]quinolin-2-one], the IC50 was 24.8 nM.

Regarding `Cc1nc(N2CCC2)ccc1-n1c(=O)n(C)c2cnc3ccc(-c4cncc(C(C)(C)O)c4)cc3c21` [Example 23.3, 1-(6-Azetidin-1-yl-2-methyl-pyridin-3-yl)-8-[5-(1-hydroxy-1-methyl-ethyl)-pyridin-3-yl]-3-methyl-1,3-dihydro-imidazo[4,5-c]quinolin-2-one], the IC50 was 5.7 nM.

With `CNc1ccc(-c2ccc3ncc4c(c3c2)n(-c2ccc(N3CCC3)nc2C)c(=O)n4C)cn1` [Example 23.4, 1-(6-Azetidin-1-yl-2-methyl-pyridin-3-yl)-3-methyl-8-(6-methylamino-pyridin-3-yl)-1,3-dihydro-imidazo[4,5-c]quinolin-2-one], the IC50 was determined as 5.7 nM.

As to `CCOc1cc(-c2ccc3ncc4c(c3c2)n(-c2ccc(N3CCC3)nc2C)c(=O)n4C)cnc1COC` [Example 23.5, 1-(6-Azetidin-1-yl-2-methyl-pyridin-3-yl)-8-(5-ethoxy-6-methoxymethyl-pyridin-3-yl)-3-methyl-1,3-dihydro-imidazo[4,5-c]quinolin-2-one], the IC50 was 37.3 nM.

With `COCc1ncc(-c2ccc3ncc4c(c3c2)n(-c2ccc(N3CCC3)nc2C)c(=O)n4C)cc1OC` [Example 23.6, 1-(6-Azetidin-1-yl-2-methyl-pyridin-3-yl)-8-(5-methoxy-6-methoxymethyl-pyridin-3-yl)-3-methyl-1,3-dihydro-imidazo[4,5-c]quinolin-2-one], the IC50 was found to be 37.1 nM.

As for `CCNc1cc(-c2ccc3ncc4c(c3c2)n(-c2ccc(N3CCC3)nc2C)c(=O)n4C)cnc1CO` [Example 23.8, 1-(6-Azetidin-1-yl-2-methyl-pyridin-3-yl)-8-(5-ethylamino-6-hydroxymethyl-pyridin-3-yl)-3-methyl-1,3-dihydro-imidazo[4,5-c]quinolin-2-one], the IC50 is 7.3 nM.

For `Cc1nc(N2CCC2)ccc1-n1c(=O)n(C)c2cnc3ccc(-c4cncc(OC(C)C)c4)cc3c21` [Example 23.9, 1-(6-Azetidin-1-yl-2-methyl-pyridin-3-yl)-8-(5-isopropoxy-pyridin-3-yl)-3-methyl-1,3-dihydro-imidazo[4,5-c]quinolin-2-one], the IC50 turned out to be 26.2 nM.
